The values that follow come from patent publication US20230086702A1, “SUBSTITUTED 2-AMINO-PYRAZOLYL-[1,2,4]TRIAZOLO[1,5A]PYRIDINE DERIVATIVES AND USE THEREOF” (The Johns Hopkins University, priority 2019, published 2023).

The target of assay [1] is T1, DLK (Homo sapiens, UniProt Q12852).
T1 construct: 10 nM DLK, catalytic domain, Carna Biosiences; purchased Carna Biosciences ('Carna Biosiences' [sic])
T1 sequence (Q12852 125-366 limits assumed): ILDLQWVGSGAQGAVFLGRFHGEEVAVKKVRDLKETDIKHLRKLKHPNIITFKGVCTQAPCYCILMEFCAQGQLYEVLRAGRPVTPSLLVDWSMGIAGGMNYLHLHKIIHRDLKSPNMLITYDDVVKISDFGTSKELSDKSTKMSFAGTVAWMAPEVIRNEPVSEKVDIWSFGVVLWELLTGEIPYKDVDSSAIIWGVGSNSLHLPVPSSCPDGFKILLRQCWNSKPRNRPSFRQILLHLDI
The experiment in a line: DLK biochemical assay (TR-FRET, MKK7 phosphorylation). The procedure:
(§1) DLK assay is a biochemical assay format designed to screen for inhibitors of DLK. Enzymatic activity of DLK is measured by monitoring phosphorylation of the physiological substrate MKK7 (MAP2K7, Dual specificity mitogen-activated protein kinase kinase 7). Phosphorylation is detected by a TR-FRET system whereby His-tagged MKK7 is labeled by a XL665-labeled anti-His antibody (FRET acceptor, emission 665 nm). DLK phosphorylates MKK7 at T275/S277, which is detected by an Eu-labeled anti-phospho-MKK7 (T275/S277) antibody (FRET donor, excitation 340 nm). Phosphorylation of MKK7 results in an increased TR-FRET signal (Ratio XL665-channel/Eu-channel) and inhibition of enzymatic activity of DLK decreases the TR-FRET signal.
Assay Protocol for 1536 MTP format: test compounds are predispensed (60 nl) in test plates; +3 μl DLK solution (10 nM DLK, catalytic domain, Carna Biosiences, 0.6 mM DTT in assay buffer); +2 μl substrate solution (15 nM MKK7, LDB; 60 μM ATP; 0.4 mM DTT in assay buffer); 90 min incubation at RT; +2 μl detection mix (5 nM XL665-labeled anti-His antibody, Cisbio; 0.1 nM Eu-labeled anti-phospho-MKK7 (T275/S277), Cisbio/Millipore in detection buffer); 16 h incubation at 37° C.; endpoint measurement BMG (HTRF).
Assay Protocol for 384 low volume MTP format: 1 μl of test compounds is pipetted into test plate; +5 μl DLK solution (10 nM DLK, catalytic domain, Carna Biosiences in assay buffer); +5 μl substrate solution (15 nM MKK7, LDB; 60 μM ATP, in assay buffer); 90 min incubation at RT; +9 μl detection mix (20 nM XL665-labeled anti-His antibody, Cisbio; 0.4 nM Eu-labeled anti-phospho-MKK7 (T275/S277), Cisbio/Millipore in detection buffer); 16 h incubation at 4° C.; endpoint measurement BMG (HTRF).
(§2) All indicated concentrations final concentrations.
(§3) Assay buffer (384 format): 50 mM Hepes pH 7.5, 10 mM MgCl2, 1 mM EGTA, 1 mM DTT, 0.01% Triton X-100, 0.01% BSA, 1:500 Smart Block.
(§4) Detection buffer: 25 mM Tris/HCl pH 7.5, 100 mM EDTA, 100 mM NaCl, 200 mM KF, 0.01% Tween 20, 1:500 Smart Block.

Assay [2] concerns the target T2, LZK (Homo sapiens, UniProt O43283).
T2 construct: 10 nM LZK, catalytic domain, Carna Biosiences in assay buffer; purchased Carna Biosciences ('Carna Biosiences' [sic])
T2 sequence (O43283 168-409 limits assumed): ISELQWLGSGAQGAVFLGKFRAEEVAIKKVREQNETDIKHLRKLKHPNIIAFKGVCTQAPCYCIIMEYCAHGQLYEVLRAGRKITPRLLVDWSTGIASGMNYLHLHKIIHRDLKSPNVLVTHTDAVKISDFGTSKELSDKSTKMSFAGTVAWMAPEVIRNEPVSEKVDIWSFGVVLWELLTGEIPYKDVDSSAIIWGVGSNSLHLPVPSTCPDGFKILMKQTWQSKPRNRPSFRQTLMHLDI
The assay is described as follows: LZK biochemical assay (TR-FRET, MKK7 phosphorylation). The procedure:
as §1, with “LZK” for “DLK”, “LZK.” for “DLK.”, “T275/S277” for “T275/S277,”
Assay Protocol for 384 low volume MTP format: 1 μl of test compound is pipetted into test plate; +5 μl LZK solution (10 nM LZK, catalytic domain, Carna Biosiences in assay buffer); +5 μl substrate solution (15 nM MKK7, LDB; 15 μM ATP, in assay buffer); 90 min incubation at RT; +5 μl detection mix (20 nM XL665-labeled anti-His antibody, Cisbio; 0.4 nM Eu-labeled anti-phospho-MKK7 (T275/S277), Cisbio/Millipore in detection buffer); 16 h incubation at 32° C.; endpoint measurement BMG (HTRF).
as §2, §3, §4

Structures are written as SMILES.

For the molecule `CC(C)C(c1ccc(C(F)(F)F)nc1)n1cc(-c2cc(-c3ccc(C4CC4)nc3)c3nc(N)nn3c2)cn1` (racemic) [II-43, 8-(6-Cyclopropylpyridin-3-yl)-6-(1-{2-methyl-1-[6-(trifluoromethyl)pyridin-3-yl]propyl}-1H-pyrazol-4-yl)[1,2,4]triazolo[1,5-a]pyridin-2-amine], the IC50 – broadly, the concentration that inhibits the measured activity by half – amounted to 4.2 nM in assay [1] and 26 nM in assay [2].
Taken in the same sequence, the figures for `CC(C)C(c1ccc(C(F)(F)F)nc1)n1cc(-c2cc(-c3ccc(OC4CC4)nc3)n3nc(N)nc3c2)cn1` (racemic) [II-48, 5-[6-(Cyclopropyloxy)pyridin-3-yl]-7-(1-{2-methyl-1-[6-(trifluoromethyl)pyridin-3-yl]propyl}-1H-pyrazol-4-yl)[1,2,4]triazolo[1,5-a]pyridin-2-amine] were 7.5 nM and 11 nM.
Taken in the same sequence, the figures for `CC(C)C(c1ccc(C(F)F)nc1)n1cc(-c2cc(-c3ccc(OC(F)F)nc3)n3nc(N)nc3c2)cn1` (racemic) [II-49, 5-[6-(Difluoromethoxy)pyridin-3-yl]-7-(1-{1-[6-(difluoromethyl)pyridin-3-yl]-2-methylpropyl}-1H-pyrazol-4-yl)[1,2,4]triazolo[1,5-a]pyridin-2-amine] were 31 nM and 84 nM.
Taken in the same sequence, the figures for `CC(C)C(c1ccc(C(F)F)nc1)n1cc(-c2cc(-c3ccc(C4CC4)nc3)n3nc(N)nc3c2)cn1` (racemic) [II-52, 5-(6-Cyclopropylpyridin-3-yl)-7-(1-{1-[6-(difluoromethyl)pyridin-3-yl]-2-methylpropyl}-1H-pyrazol-4-yl)[1,2,4]triazolo[1,5-a]pyridin-2-amine] were 6 nM and 19 nM.
For `CCC(c1ccc(C(F)(F)F)nc1)n1cc(-c2cc(-c3ccc(C4CC4)nc3)n3nc(N)nc3c2)cn1` (racemic) [II-55, 5-(6-Cyclopropylpyridin-3-yl)-7-(1-{1-[6-(trifluoromethyl)pyridin-3-yl]propyl}-1H-pyrazol-4-yl)[1,2,4]triazolo[1,5-a]pyridin-2-amine], the values for the IC50 in assay [1] and in assay [2] were 21 nM and 24 nM, respectively.
The like results for `CC(C)C(c1ccc(C(F)(F)F)nc1)n1cc(-c2cc(-c3ccc(C4CC4)nc3)n3nc(N)nc3c2)cn1` (racemic) [II-58, 5-(6-Cyclopropylpyridin-3-yl)-7-(1-{2-methyl-1-[6-(trifluoromethyl)pyridin-3-yl]propyl}-1H-pyrazol-4-yl)[1,2,4]triazolo[1,5-a]pyridin-2-amine] were, in that order, 21 nM and 22 nM.
Turning to `CCC(c1ccc(C(F)F)nc1)n1cc(-c2cc(-c3ccc(C(F)(F)F)nc3)n3nc(N)nc3c2)cn1` (racemic) [II-61, 7-(1-{1-[6-(Difluoromethyl)pyridin-3-yl]propyl}-1H-pyrazol-4-yl)-5-[6-(trifluoromethyl)pyridin-3-yl][1,2,4]triazolo[1,5-a]pyridin-2-amine], the IC50 was determined as 65 nM in assay [1] and 62 nM in assay [2].
The like results for `CC(C)C(c1ccc(C(F)F)nc1)n1cc(-c2cc(-c3ccc(C(F)(F)F)nc3)n3nc(N)nc3c2)cn1` (racemic) [II-64, 7-(1-{1-[6-(Difluoromethyl)pyridin-3-yl]-2-methylpropyl}-1H-pyrazol-4-yl)-5-[6-(trifluoromethyl)pyridin-3-yl][1,2,4]triazolo[1,5-a]pyridin-2-amine] were, in that order, 40 nM and 59 nM.
The like results for `CCC(c1ccc(C(F)F)nc1)n1cc(-c2cc(-c3ccc(C4CC4)nc3)n3nc(N)nc3c2)cn1` (racemic) [II-67, 5-(6-Cyclopropylpyridin-3-yl)-7-(1-{1-[6-(difluoromethyl)pyridin-3-yl]propyl}-1H-pyrazol-4-yl)[1,2,4]triazolo[1,5-a]pyridin-2-amine] were, in that order, 12 nM and 15 nM.
Taken in the same sequence, the figures for `CC(C)C(c1ccc(C(F)(F)F)nc1)n1cc(-c2cc(-c3ccc(C(F)F)nc3)n3nc(N)nc3c2)cn1` (racemic) [II-70, 5-[6-(Difluoromethyl)pyridin-3-yl]-7-(1-{2-methyl-1-[6-(trifluoromethyl)pyridin-3-yl]propyl}-1H-pyrazol-4-yl)[1,2,4]triazolo[1,5-a]pyridin-2-amine] were 26 nM and 15 nM.
With `CC(C)C(c1ccc(C(F)(F)F)nc1)n1cc(-c2cc(-c3ccc(C4CC(F)(F)C4)nc3)n3nc(N)nc3c2)cn1` (racemic) [II-73, 5-[6-(3,3-Difluorocyclobutyl)pyridin-3-yl]-7-(1-{2-methyl-1-[6-(trifluoromethyl)pyridin-3-yl]propyl}-1H-pyrazol-4-yl)[1,2,4]triazolo[1,5-a]pyridin-2-amine], the half-inhibitory concentration (IC50) in assay [1] and in assay [2] was 44 nM each time.
In the case of `Nc1nc2cc(-c3cnn(C(c4ccc(C(F)F)nc4)C4CCOCC4)c3)cc(-c3ccc(C(F)(F)F)nc3)n2n1` (racemic) [II-76, 7-(1-{[6-(Difluoromethyl)pyridin-3-yl](tetrahydro-2H-pyran-4-yl)methyl}-1H-pyrazol-4-yl)-5-[6-(trifluoromethyl)pyridin-3-yl][1,2,4]triazolo[1,5-a]pyridin-2-amine], the IC50 in assay [1] came to 21 nM; in assay [2], 16 nM.
As for `CC(C)C(c1ccc(C(F)(F)F)nc1)n1cc(-c2cc(-c3ccc(N4CCCC4)nc3)n3nc(N)nc3c2)cn1` (racemic) [II-79, 7-(1-{2-Methyl-1-[6-(trifluoromethyl)pyridin-3-yl]propyl}-1H-pyrazol-4-yl)-5-[6-(pyrrolidin-1-yl)pyridin-3-yl][1,2,4]triazolo[1,5-a]pyridin-2-amine], the IC50 stood at 46 nM in assay [1] and 27 nM in assay [2].
Taken in the same sequence, the figures for `CC(C)C(c1ccc(C(F)(F)F)nc1)n1cc(-c2cc(-c3ccc(C4(O)CCC4)nc3)n3nc(N)nc3c2)cn1` (racemic) [II-80, 1-{5-[2-Amino-7-(1-{2-methyl-1-[6-(trifluoromethyl)pyridin-3-yl]propyl}-1H-pyrazol-4-yl)[1,2,4]triazolo[1,5-a]pyridin-5-yl]pyridin-2-yl}cyclobutan-1-ol] were 21 nM and 17 nM.
The like results for `CC(C)C(c1ccc(C(F)(F)F)nc1)n1cc(-c2cc(-c3cnc(OCC(F)(F)F)nc3)n3nc(N)nc3c2)cn1` (racemic) [II-85, 7-(1-{2-Methyl-1-[6-(trifluoromethyl)pyridin-3-yl]propyl}-1H-pyrazol-4-yl)-5-[2-(2,2,2-trifluoroethoxy)pyrimidin-5-yl][1,2,4]triazolo[1,5-a]pyridin-2-amine] were, in that order, 230 nM and 320 nM.
